From ChEMBL document CHEMBL2010728, “Bicyclic benzofuran and indole-based salicylic acids as protein tyrosine phosphatase inhibitors” (Bioorg Med Chem, 2012)

Key:
[1] = target: Tyrosine-protein phosphatase YopH (Yersinia pseudotuberculosis serotype I (strain IP32953), UniProt P08538); assay: Inhibition of Yersinia pseudotuberculosis YopH
[2] = target: T1, Tyrosine-protein phosphatase non-receptor type 1 (Homo sapiens, UniProt P18031); assay: Inhibition of PTP1B expressed in Escherichia coli BL21 (DE3) cells using p-nitrophenyl phosphate as substrate after 2 to 3 mins by spectrophotometric analysis
T1 sequence (P18031 whole entry): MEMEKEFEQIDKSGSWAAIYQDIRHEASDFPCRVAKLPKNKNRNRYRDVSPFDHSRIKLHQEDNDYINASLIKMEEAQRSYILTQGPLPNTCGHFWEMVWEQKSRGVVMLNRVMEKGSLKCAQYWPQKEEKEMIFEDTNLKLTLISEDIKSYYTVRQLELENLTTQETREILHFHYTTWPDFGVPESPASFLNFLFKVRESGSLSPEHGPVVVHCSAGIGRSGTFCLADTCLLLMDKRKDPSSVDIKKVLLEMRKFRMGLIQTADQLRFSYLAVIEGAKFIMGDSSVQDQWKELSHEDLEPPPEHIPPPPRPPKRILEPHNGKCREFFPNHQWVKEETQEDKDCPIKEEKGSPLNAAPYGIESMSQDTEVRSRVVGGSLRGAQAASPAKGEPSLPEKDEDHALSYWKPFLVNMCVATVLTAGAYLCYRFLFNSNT

[3] = target: T2, Tyrosine-protein phosphatase non-receptor type 1 (Homo sapiens) (UniProt P18031); assay: Ratio of Ki for salicylic acid to compound Ki for PTP1B
T2 sequence (whole entry): T1 sequence (P18031 whole entry)

Homo sapiens = species on record: Homo sapiens; assay: Selectivity ratio of Ki for human recombinant TC-PTP to Ki for PTP1B
[4] = Selectivity ratio of Ki for PTP to Ki for PTP1B

Sequence of Tyrosine-protein phosphatase YopH (P08538 whole entry): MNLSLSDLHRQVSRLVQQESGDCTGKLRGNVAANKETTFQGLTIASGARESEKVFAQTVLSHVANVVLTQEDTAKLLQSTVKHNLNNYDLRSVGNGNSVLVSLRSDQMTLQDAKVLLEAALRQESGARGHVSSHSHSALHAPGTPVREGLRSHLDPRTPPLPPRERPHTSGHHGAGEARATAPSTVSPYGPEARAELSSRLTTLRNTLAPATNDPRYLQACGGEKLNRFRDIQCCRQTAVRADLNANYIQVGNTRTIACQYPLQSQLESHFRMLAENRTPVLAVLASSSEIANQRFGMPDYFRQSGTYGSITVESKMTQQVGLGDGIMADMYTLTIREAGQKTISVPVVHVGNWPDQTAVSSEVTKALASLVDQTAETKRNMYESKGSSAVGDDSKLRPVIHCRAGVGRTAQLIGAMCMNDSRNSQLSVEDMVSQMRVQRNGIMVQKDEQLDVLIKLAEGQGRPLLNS

Structure (SMILES): O=C(O)c1cc2cccc(O)c2cc1O
- IC50 [1]: 18 µM

Structure (SMILES): O=C(O)c1cc(NCn2c(=S)[nH]c3ccccc32)ccc1O
- Ki [2]: 61 µM

Structure (SMILES): O=C(O)c1cc(NCn2c(S)nc3ccccc32)ccc1O
- Ratio Ki [3]: 320

Structure (SMILES): O=C(O)c1cc2cc(O)ccc2cc1O
- IC50 [1]: 60 µM

Structure (SMILES): N[C@@H](Cc1ccc(C(F)(F)P(=O)(O)O)cc1)C(=O)O [PHOSPHONODIFLUOROMETHYL PHENYLALANINE]
- Ratio (Homo sapiens): 10
- Ki [2]: 0.0024 µM
- Ratio Ki [4]: 1000

Structure (SMILES): O=C(O)c1ccccc1O [SALICYLIC ACID]
- Ki [2]: 19400 µM
- Ki [1]: 1000 µM
